The test has as its target T1, human TRPV4 (Homo sapiens, UniProt Q9HBA0).
T1 construct: expressed in transfected cells; host or cells: BHK/AC9 cells transduced with BacMam virus
The test can be described thus: FLIPR assay for hTRPV4 expressed in BHK cells: inhibition of Agonist Compound-induced calcium signal. It is filed as cell-based. To be noted: hTRPV4 in BHK/AC9 cells, FLIPR calcium signal, agonist at EC80; reported as range class; read-out: IC50. In outline: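 Calcium influx through TRPV4 tracked by Fluo-4 fluorescence on FLIPR. Cells: BHK/AC9 transduced with BacMam-hTRPV4 at MOI 78, 24 h culture post-plating (15,000 cells/well). Dye loading: 2 μM Fluo-4 AM with 500 μM Brilliant Black quencher, 1-1.5 h, room temperature, dark.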
T1 sequence (Q9HBA0 whole entry): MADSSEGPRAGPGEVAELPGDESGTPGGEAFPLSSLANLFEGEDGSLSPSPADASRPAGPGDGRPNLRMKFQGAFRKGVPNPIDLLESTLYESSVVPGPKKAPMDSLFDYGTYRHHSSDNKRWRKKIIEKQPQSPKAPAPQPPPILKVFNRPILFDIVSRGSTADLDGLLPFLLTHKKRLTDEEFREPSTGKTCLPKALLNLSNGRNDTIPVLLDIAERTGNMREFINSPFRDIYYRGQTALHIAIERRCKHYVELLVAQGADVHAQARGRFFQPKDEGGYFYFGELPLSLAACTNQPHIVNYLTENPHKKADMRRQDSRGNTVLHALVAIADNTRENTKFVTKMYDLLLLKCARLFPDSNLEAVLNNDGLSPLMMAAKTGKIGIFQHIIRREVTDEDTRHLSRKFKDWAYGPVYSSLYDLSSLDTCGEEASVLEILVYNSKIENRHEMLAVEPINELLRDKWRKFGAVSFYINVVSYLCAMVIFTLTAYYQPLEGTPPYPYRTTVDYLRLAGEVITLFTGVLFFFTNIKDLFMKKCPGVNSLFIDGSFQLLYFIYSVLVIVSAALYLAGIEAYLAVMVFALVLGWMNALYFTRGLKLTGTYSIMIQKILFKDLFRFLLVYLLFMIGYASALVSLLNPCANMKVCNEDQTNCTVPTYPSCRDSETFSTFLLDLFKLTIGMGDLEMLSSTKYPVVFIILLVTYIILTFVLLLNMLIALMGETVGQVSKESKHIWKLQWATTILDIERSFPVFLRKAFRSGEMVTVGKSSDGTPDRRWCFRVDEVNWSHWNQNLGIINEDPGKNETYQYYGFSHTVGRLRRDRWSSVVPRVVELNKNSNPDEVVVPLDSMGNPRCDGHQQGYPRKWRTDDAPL
What is called IC50 is the concentration at which inhibition is half-maximal. Regarding `CCOc1cc(C#N)c(F)cc1O[C@H]1CN(S(=O)(=O)c2ccc(C(F)(F)F)cc2C#N)C[C@@]1(O)CO` [Example 159, 4-(((3S,4R)-1-((2-cyano-4-(trifluoromethyl)phenyl)sulfonyl)-4-hydroxy-4-(hydroxymethyl)pyrrolidin-3-yl)oxy)-5-ethoxy-2-fluorobenzonitrile], the IC50 is 0.0001 to 0.01 µM. With `CCCOc1cc(C#N)c(F)cc1O[C@H]1CN(S(=O)(=O)c2ccc(C(F)(F)F)cc2C#N)C[C@@]1(O)CO` [Example 160, 4-(((3S,4R)-1-((2-cyano-4-(trifluoromethyl)phenyl)sulfonyl)-4-hydroxy-4-(hydroxymethyl)pyrrolidin-3-yl)oxy)-2-fluoro-5-propoxybenzonitrile], the IC50 was 0.0001 to 0.01 µM. To `CC(C)Oc1cc(C#N)c(F)cc1O[C@H]1CN(S(=O)(=O)c2ccc(C(F)(F)F)cc2C#N)C[C@@]1(O)CO` [Example 161, 4-(((3S,4R)-1-((2-cyano-4-(trifluoromethyl)phenyl)sulfonyl)-4-hydroxy-4-(hydroxymethyl)pyrrolidin-3-yl)oxy)-2-fluoro-5-isopropoxybenzonitrile] belongs 0.0001 to 0.01 µM; to `N#Cc1cc(O)c(O[C@H]2CN(S(=O)(=O)c3ccc(C(F)(F)F)cc3C#N)C[C@@]2(O)CO)cc1F` [Example 162, 4-(((3S,4R)-1-((2-cyano-4-(trifluoromethyl)phenyl)sulfonyl)-4-hydroxy-4-(hydroxymethyl)pyrrolidin-3-yl)oxy)-2-fluoro-5-hydroxybenzonitrile], 0.0001 to 0.01 µM. To `N#Cc1cc(OCc2ccccc2)c(O[C@H]2CN(S(=O)(=O)c3ccc(C(F)(F)F)cc3C#N)C[C@@]2(O)CO)cc1F` [Example 163, 5-(benzyloxy)-4-(((3S,4R)-1-((2-cyano-4-(trifluoromethyl)phenyl)sulfonyl)-4-hydroxy-4-(hydroxymethyl)pyrrolidin-3-yl)oxy)-2-fluorobenzonitrile] belongs 0.0001 to 0.01 µM; to `CCCCOc1cc(C#N)c(F)cc1O[C@H]1CN(S(=O)(=O)c2ccc(C(F)(F)F)cc2C#N)C[C@@]1(O)CO` [Example 164, 5-butoxy-4-(((3S,4R)-1-((2-cyano-4-(trifluoromethyl)phenyl)sulfonyl)-4-hydroxy-4-(hydroxymethyl)pyrrolidin-3-yl)oxy)-2-fluorobenzonitrile], 0.0001 to 0.01 µM; to `CC(C)COc1cc(C#N)c(F)cc1O[C@H]1CN(S(=O)(=O)c2ccc(C(F)(F)F)cc2C#N)C[C@@]1(O)CO` [Example 165, 4-(((3S,4R)-1-((2-cyano-4-(trifluoromethyl)phenyl)sulfonyl)-4-hydroxy-4-(hydroxymethyl)pyrrolidin-3-yl)oxy)-2-fluoro-5-isobutoxybenzonitrile], 0.0001 to 0.01 µM. In the case of `CCCOc1cc(C#N)ccc1O[C@H]1CN(S(=O)(=O)c2ccc(C(F)(F)F)cc2C#N)C[C@@]1(O)CO` [Example 166, 2-(((3R,4S)-4-(4-cyano-2-propoxyphenoxy)-3-hydroxy-3-(hydroxymethyl)pyrrolidin-1-yl)sulfonyl)-5-(trifluoromethyl)benzonitrile], the IC50 lay within 0.0001 to 0.01 µM. Consider `N#Cc1ccc(O[C@H]2CN(S(=O)(=O)c3ccc(C(F)(F)F)cc3C#N)C[C@@]2(O)CO)c(OCC(F)(F)F)c1` [Example 167, 2-(((3R,4S)-4-(4-cyano-2-(2,2,2-trifluoroethoxy)phenoxy)-3-hydroxy-3-(hydroxymethyl)pyrrolidin-1-yl)sulfonyl)-5-(trifluoromethyl)benzonitrile], for which the IC50 was 0.0001 to 0.01 µM. The figure for `N#Cc1ccc(O[C@H]2CN(S(=O)(=O)c3ccc(C(F)(F)F)cc3C#N)C[C@@]2(O)CO)c(O)c1` [Example 168, 2-(((3R,4S)-4-(4-cyano-2-hydroxyphenoxy)-3-hydroxy-3-(hydroxymethyl)pyrrolidin-1-yl)sulfonyl)-5-(trifluoromethyl)benzonitrile] is 0.01 to 0.1 µM; for `CCCCOc1cc(C#N)ccc1O[C@H]1CN(S(=O)(=O)c2ccc(C(F)(F)F)cc2C#N)C[C@@]1(O)CO` [Example 169, 2-(((3R,4S)-4-(2-butoxy-4-cyanophenoxy)-3-hydroxy-3-(hydroxymethyl)pyrrolidin-1-yl)sulfonyl)-5-(trifluoromethyl)benzonitrile] it is 0.0001 to 0.01 µM; for `CC(C)COc1cc(C#N)ccc1O[C@H]1CN(S(=O)(=O)c2ccc(C(F)(F)F)cc2C#N)C[C@@]1(O)CO` [Example 170, 2-(((3R,4S)-4-(4-cyano-2-isobutoxyphenoxy)-3-hydroxy-3-(hydroxymethyl)pyrrolidin-1-yl)sulfonyl)-5-(trifluoromethyl)benzonitrile] it is 0.0001 to 0.01 µM.

Regarding `N#Cc1ccc(O[C@H]2CN(S(=O)(=O)c3ccc(C(F)(F)F)cc3C#N)C[C@@]2(O)CO)c(OCc2ccccc2)c1` [Example 171, 2-(((3R,4S)-4-(2-(benzyloxy)-4-cyanophenoxy)-3-hydroxy-3-(hydroxymethyl)pyrrolidin-1-yl)sulfonyl)-5-(trifluoromethyl)benzonitrile], the IC50 was in the range of 0.0001 to 0.01 µM. For the molecule `N#Cc1ccc(S(=O)(=O)N2C[C@H](Oc3ccc(C#N)cc3OCC(F)(F)F)[C@](O)(CO)C2)cc1` [Example 172, 4-(((3S,4R)-1-((4-cyanophenyl)sulfonyl)-4-hydroxy-4-(hydroxymethyl)pyrrolidin-3-yl)oxy)-3-(2,2,2-trifluoroethoxy)benzonitrile], the IC50 was 0.01 to 0.1 µM. With `N#Cc1cc(OCC(F)(F)F)c(O[C@H]2CN(S(=O)(=O)c3ccccc3C#N)C[C@@]2(O)CO)cc1F` [Example 173, 4-(((3S,4R)-1-((2-cyanophenyl)sulfonyl)-4-hydroxy-4-(hydroxymethyl)pyrrolidin-3-yl)oxy)-2-fluoro-5-(2,2,2-trifluoroethoxy) benzonitrile], the IC50 was in the range of 0.0001 to 0.01 µM. For the molecule `N#Cc1ccc(S(=O)(=O)N2C[C@H](Oc3cc(F)c(C#N)cc3OCC(F)(F)F)[C@](O)(CO)C2)cn1` [Example 174, 5-(((3R,4S)-4-(4-cyano-5-fluoro-2-(2,2,2-trifluoroethoxy)phenoxy)-3-hydroxy-3-(hydroxymethyl)pyrrolidin-1-yl)sulfonyl) picolinonitrile], the IC50 was 0.0001 to 0.01 µM. Take `N#Cc1cc(OCC(F)(F)F)c(O[C@H]2CN(S(=O)(=O)c3ccc(C(F)(F)F)nc3)C[C@@]2(O)CO)cc1F` [Example 175, 2-fluoro-4-(((3S,4R)-4-hydroxy-4-(hydroxymethyl)-1-((6-(trifluoromethyl)pyridin-3 yl)sulfonyl)pyrrolidin-3-yl)oxy)-5-(2,2,2-trifluoroethoxy) benzonitrile]: the IC50 fell in the range of 0.01 to 0.1 µM. With `N#Cc1cc(OCC(F)(F)F)c(O[C@H]2CN(S(=O)(=O)c3ccccc3)C[C@@]2(O)CO)cc1F` [Example 176, 2-fluoro-4-(((3S,4R)-4-hydroxy-4-(hydroxymethyl)-1-(phenylsulfonyl)pyrrolidin-3-yl)oxy)-5-(2,2,2-trifluoroethoxy) benzonitrile], the IC50 was in the range of 0.01 to 0.1 µM.

Turning to `N#Cc1cc(OCC(F)(F)F)c(O[C@H]2CN(S(=O)(=O)c3ccc(Cl)cc3Cl)C[C@@]2(O)CO)cc1F` [Example 177, 4-(((3S,4R)-1-((2,4-dichlorophenyl)sulfonyl)-4-hydroxy-4-(hydroxymethyl)pyrrolidin-3-yl)oxy)-2-fluoro-5-(2,2,2-trifluoroethoxy) benzonitrile], the IC50 lay within 0.0001 to 0.01 µM.
